Laboratory results: patent EP1140026B1, “BIODEGRADBLE POLYMER ENCAPSULATED SEROTONIN RECEPTOR ANTAGONIST AND METHOD FOR PREPARING THE SAME” (AVENTIS PHARMACEUTICALS INC., priority 1998, dated 2000)

How the values were obtained:
Male Wistar rats = test: Chronic Mild Stress Model of Depression (CMS), consumption of 1% sucrose solution; type: in vivo
Text: CMS uses mild stressors, such as food and water deprivation, cage tilts, changes of cage mates, etc. Over a period of weeks of exposure to the mild stressors, the animals gradually reduce their consumption of a highly preferred sucrose solution which persists (in untreated animals) for several weeks following the cessation of stress. This decreased sensitivity to reward (the sucrose solution) reflects anhedonia, a symptom of a Major Depressive Episode (see for example, Behavioral Pharmacol. 5: Suppl.1, p. 86 (1994) where lithium, carbamazepine and ketoconazole were evaluated in CMS; Psychopharmacology 93:358-364 (1987) where a tricyclic antidepressant was evaluated in CMS; Behavioral Pharmacology: 5:344-350 (1994) where a catechol-O-methyl transferase inhibitor was evaluated in CMS).
Male Wistar rats were brought into the laboratory two months before the start of the experiment at which time they weighed approximately 300 grams. Except as described below, the animals were singly housed, with food and water freely available, and maintained on a 12 hour light/dark cycle (lights on at 8AM) at a temperature of about 22 °C.
The animals were first trained to consume a 1% sucrose solution; training consisted of eight 1 hour baseline tests in which sucrose was presented, in the home cage, following 14 hours food and water deprivation;- intake was measured by weighing pre-weighed bottles containing the sucrose solution at the end of the test. Subsequently, sucrose consumption was monitored, under similar conditions, at weekly intervals throughout the whole experiment.
On the basis of their sucrose intakes in the final baseline test, the animals were divided into two matched groups. One group of animals was subjected to a chronic mild stress procedure for a period of 9 consecutive weeks. Each week of stress regime consisted of: two periods of food or water deprivation (12 and 14 hour), two periods of 45 degree cage tilt (12 and 14 hour+), two periods of intermittent overnight illumination (lights on and off every 2 hours), two 14 hour periods of soiled cage (200 ml water in sawdust bedding), two 14 hour periods of paired housing, two 14 hour periods of low intensity stroboscopic illumination (150 flashes/min). Stressors were applied continuously throughout the day and night, and scheduled randomly. Control animals were housed in a separate room and had no contract with the stressed animals. They were deprived of food and water for the 14 hours preceding each sucrose test, but otherwise food and water were freely available in the home cage. On the basis of their sucrose intake scores following 3 weeks of stress, both stressed and control animals were each divided further into matched subgroups (n=8), and for subsequent five weeks they received daily administrations of vehicle (1ml/kg, intraperitoneally (ip)) imipramine (10mg/kg, ip) or MDL 100,907 (0.002, 0.02 and 0.2 mg/kg orally). All drug injections were in a volume of 1ml/kg body weight. Drugs were administered at 10AM and sucrose tests were carried out 24 hours following the last drug treatment. After five weeks, the treatments were terminated and after one week of withdrawal a final sucrose test was carried out. Stress was continued throughout the period of treatment and withdrawal.
Results were analyzed by multiple analysis of variance, followed by Fisher's LSD test for post hoc comparisons of means.

[1] = tested on: prepulse inhibition and latent inhibition; details: cited from earlier work
platelets = details: aggregation as the result of minor alterations in the endothelial lining of the vasculature; cited from earlier work
[2] = tested on: amphetamine-stimulated locomotion; details: in vivo; cited from earlier work
[3] = tested on: A10 vs. A9 neuronal activity; details: after chronic administration; cited from earlier work
myocardial tissue = details: cited from earlier work
[4] = tested on: MDMA-induced dopamine release in the striatum; details: in vivo; cited from earlier work

Q: For CN(C)CCCN1c2ccccc2CCc2ccccc21 [Imipramine, reference compound], which “sucrose intake in control animals” value (Male Wistar rats; imipramine 10mg/kg ip daily, five weeks) is on record?
A: Its value is “no significant effect”.

Q: What about the “sucrose intake in stressed animals” value (Male Wistar rats; imipramine 10mg/kg ip daily, five weeks, stressed animals) of the same compound?
A: Its value is “gradual increase of sucrose intake”.

Q: And the “sucrose intake after five weeks of treatment, stressed animals versus controls” value (Male Wistar rats; imipramine 10mg/kg ip daily, Week 5)?
A: Its value is “no significant differences between drug-treated stressed animals and drug- and saline-treated controls”.

Q: What about the “treatment time after which sucrose intake was significantly increased from Week 0 scores” value (Male Wistar rats; imipramine 10mg/kg ip daily, stressed animals) of the same compound?
A: The value was “four”.

Q: What about the “increase of sucrose intake one week after withdrawal from the drug” value (Male Wistar rats; imipramine 10mg/kg ip, stressed animals, one week after withdrawal) of the same compound?
A: The value was “maintained at similar level”.

Q: For COc1cccc(C(O)C2CCN(CCc3ccc(F)cc3)CC2)c1OC (stereo not drawn) [MDL 100,907, (+)-α-(2,3-dimethoxyphenyl)-1-[2-(4-fluorophenyl)ethyl]-4-piperidinemethanol], which “disrupted PPI (prepulse inhibition)” value ([1]; disruption produced by 5HT agonists in Wistar rats) is on record?
A: The value was “restore disrupted PPI”.

Q: What about the “5-HT2 agonist-induced deficits in prepulse inhibition and latent inhibition” value ([1]; rat, in vivo) of the same compound?
A: Its value is “reversal”.

Q: And the “rate at which platelets aggregate” value (platelets)?
A: Its value is “decreases the rate at which platelets aggregate”.

Q: What about the amphetamine-stimulated locomotion [2] of the same compound?
A: The amphetamine-stimulated locomotion was “blockade”.

Q: What about the “A10 vs. A9 neuronal activity” value [3] of the same compound?
A: The value was “selective effects”.

Q: What about the “anti-arrhythmic activity, classification system of Vaughan Williams” value (myocardial tissue) of the same compound?
A: The value was “Class III anti-arrhythmic activity”.

Q: And the “duration of the action potential of myocardial tissue” value (myocardial tissue)?
A: Its value is “increases the duration of the action potential”.

Q: And the “sucrose intake throughout the whole treatment period” value (Male Wistar rats; 0.002mg/kg orally daily, stressed animals)?
A: Its value is “no significant effect”.

Q: What about the “sucrose consumption after five weeks of treatment” value (Male Wistar rats; 0.002mg/kg orally daily, stressed animals, Week 5) of the same compound?
A: Its value is “did not differ from the intakes of the vehicle-treated stressed animals”.

Q: What about the “treatment time after which sucrose intakes were significantly increased from initial scores (Week 0)” value (Male Wistar rats; 0.02 mg/kg orally daily, stressed animals) of the same compound?
A: Its value is “two”.

Q: What about the “amount of sucrose solution drunk at the end of treatment period (Week 5)” value (Male Wistar rats; 0.02 mg/kg orally daily, stressed animals, Week 5) of the same compound?
A: The value was “comparable to that of vehicle-treated controls and significantly higher than that of vehicle-treated stressed animals”.

Q: And the “treatment time after which sucrose intakes were significantly increased from initial scores (Week 0)” value (Male Wistar rats; 0.2 mg/kg orally daily, stressed animals)?
A: The value was “three”.

Q: What about the “amount of sucrose solution drunk at the end of treatment period (Week 5)” value (Male Wistar rats; 0.2 mg/kg orally daily, stressed animals, Week 5) of the same compound?
A: The value was “comparable to that of vehicle-treated controls and significantly higher than that of vehicle-treated stressed animals”.

Q: And the “sucrose intakes one week after withdrawal from the treatment” value (Male Wistar rats; 0.002, 0.02 and 0.2 mg/kg, control and stressed animals, one week after withdrawal)?
A: The value was “not significantly changed”.

Q: What about the “sucrose intake in control animals” value (Male Wistar rats; MDL 100,907 0.002, 0.02 and 0.2 mg/kg orally daily, five weeks) of the same compound?
A: Its value is “no significant effect”.

Q: What about the “CMS-induced deficit in sucrose intake in stressed animals” value (Male Wistar rats; MDL 100,907 0.002, 0.02 and 0.2 mg/kg orally daily, five weeks, stressed animals) of the same compound?
A: Its value is “gradually reversed the CMS-induced deficit in sucrose intake”.

Q: And the “MDMA-induced dopamine release in the striatum” value [4]?
A: Its value is “reduction”.
